This note sets out measurements from patent US9642815B2, “Biocompatible graphene quantum dots for drug delivery and bioimaging applications” (Council of Scientific and Industrial Research, priority 2013, dated 2017).

“Also recorded” adds a separate entry of the source.

In the experiment the test system is ROS. Description: Cell free ROS assay with H2O2 and H2DCF indicator. The conditions noted are these: free PEG added to C-GQDs (FIG. 18B). On the procedure: The samples (C-GQDs, H-GQDs, S-GQDs and P-GQDs) were incubated with H2O2 in 10% fetal bovine serum (FBS) solution at 37° C. Chemically hydrolyzed 2,7-dichlorodihydrofluorescein diacetate (H2DCF-DA), yielding H2DCF, was used as a fluorescent indicator of ROS production. The increase in ROS over 90 min with 10 μM and 20 μM H2O2 in the presence and absence of GQDs were monitored. In the case of C-GQDs and H-GQDs incubated with 20 μM H2O2, the ROS production increased ˜3 and ˜4 times respectively (FIG. 7A). […] Thus, confirming again the ROS quenching ability of PEG. […] The H-GQDs produced more ROS than C-GQDs, likely because of more free-radical-susceptible hydroxyl groups on the surface generated by the hydrothermal treatment.

As for polyethylene glycol [free PEG], the “ROS quenching by free PEG in solution along with C-GQD” value is on record as “did not quench the ROS produced in solution; also recorded: No significant quenching”.
